Source: patent publication US20230285364A1, “USE OF A DHODH INHIBITOR COMPOUND IN COMBINATION CANCER THERAPY” (Servier Pharmaceuticals LLC, priority 2020, published 2023)
Read-outs that look alike come from different tables or passages of the source.

Tests used:
[1] = tested on: OCILY19 xenograft model of DLBCL; type: in vivo
Method: 5 × 10^6 OCILY cells were implanted subcutaneously into 5-6 week-old female CB17 SCID mice in serum free media with Matrigel 1:1. Tumor volume and body weights were monitored twice a week until the tumors reached ~ 150 mm^3. […] At the end of study, tumor, plasma, and liver tissues were collected at the indicated timepoints post-last dose for PK and biomarker analyses. […] Venetoclax was formulated with 60% Phosal 50, 30% PEG 400, and 10% ethanol and stored at 4° C.

[2] = tested on: MOLM13 xenograft model of AML; type: in vivo
Method: 5 × 10^6 MOLM13 cells were implanted subcutaneously into 5-6 week-old female CB17 SCID mice in serum free media with Matrigel 1:1. Tumor volume and body weights were monitored twice a week until the tumors reached ~ 150 mm^3. […] At the end of study, tumor, plasma, and liver tissues were collected at the indicated timepoints post-last dose for PK and biomarker analyses. […] Venetoclax was formulated with 60% Phosal 50, 30% PEG 400, and 10% ethanol and stored at 4° C.

[3] = cited from earlier work

In the case of “4-(4-{ [2-(4-chlorophenyl)-4,4- dimethylcyclohex-1-en-1-yl]methyl}piperazin-1-yl)-N-({3-nitro-4-[(tetrahydro-2H-pyran-4-ylmethyl)amino]phenyl}sulfonyl)-2-(1H-pyrrolo[2,3-b]pyridin-5-yloxy)benzamide) [Venetoclax]”, the “Tumor Growth Inhibition” value ([1]; Venetoclax 1 mg/kg alone) was 3.6%, the “effect on tumor growth” value ([1]; venetoclax alone at the 1 m/kg dose) was “no effect” and the “Tumor Growth Inhibition” value ([2]; Venetoclax 30 mg/kg alone) was 27%.

For `Nc1ncn([C@@H]2O[C@H](CO)[C@@H](O)[C@H]2O)c(=O)n1` [Azacitidine, 4-amino-1-β-D-ribofuranozyl-s-triazin-2(1H)-one], the solubility ([3]; acetone, ethanol and methyl ketone) is given as “insoluble”, the solubility ([3]; dimethylsulfoxide (DMSO)) is given as “soluble” and the solubility ([3]; ethanol/water (50/50), propylene glycol and polyethylene glycol) is given as “slightly soluble”. The solubility ([3]; water, water-saturated octanol, 5% dextrose in water, N-methyl-2-pyrrolidone, normal saline and 5% Tween 80 in water) was “sparingly soluble”.

In the case of `Cc1ccccc1-c1ccc(-c2cc(C(=O)O)c3c(c2)nnn3C)cc1` [Compound 1, 1-methyl-5-(2′-methyl-[1,1′-biphenyl]-yl)-1H-benzo[d][1,2,3]triazole-7-carboxylic acid], the “Tumor Growth Inhibition” value ([1]; Compound 1 30 mg/kg BID alone) was 56% and the “Tumor Growth Inhibition” value ([2]; Compound 1 30 mg/kg alone) was 24%.

For `Nc1ncn([C@H]2C[C@H](O)[C@@H](CO)O2)c(=O)n1` [Decitabine, 4-amino-1-(2-deoxy-β-D-erythro-pentofuranosyl)-1,3,5-triazin-2(1H)one], the solubility ([3]; dimethylsulfoxide (DMSO)) is given as “soluble”, the solubility ([3]; ethanol/water (50/50), methanol/water (50/50) and methanol) is given as “slightly soluble” and the solubility ([3]; water) is given as “sparingly soluble”.
